Experimental data reported in US20130089641A1.

How the values were obtained:
[1] = sixth experiment: releasable iron in soymilk with 30 ppm ferrous gluconate and sodium isoascorbate additive; assay type: in vitro ADME; conditions: soymilk with 30 ppm ferrous gluconate
Text: However, everyone knows that vitamin C includes a stereoisomer called isoascorbic acid, and the physical and chemical properties of the isoascorbic acid are similar to the vitamin C.

[2] = first experiment: in vitro digestion and dialysis of soymilk with ascorbic acid or calcium ascorbate, releasable iron; assay type: in vitro ADME; conditions: soymilk, equivalent additive dosage 175 mg/100 mL
Text: For improving that, a first experiment in the present invention is done, that is, to respectively add the ascorbic acid and the calcium ascorbate into the soymilk and determine the concentration of the releasable iron thereof. Please refer to following Table (1), which is a statistical table of the releasable iron concentration in the soymilk.

[3] = fifth experiment: releasable iron in soymilk with 30 ppm ferrous gluconate and VC, NaVC, KVC or CaVC additive; assay type: in vitro ADME; conditions: soymilk with 30 ppm iron as ferrous gluconate
Text: (§1) In which, “in vitro digestion and dialysis” is used in the experiments for determining the releasable iron in human body after the foods are digested.

[4] = second experiment: releasable iron in soymilk with iron salts added by concentration gradients
Text: as §1

[5] = background, researches; cited from earlier work
[6] = sodium isoascorbate 28.6 mg/100 mL
[7] = sodium isoascorbate 57.1 mg/100 mL
[8] = sodium isoascorbate 85.7 mg/100 mL
[9] = sodium isoascorbate 114.3 mg/100 mL
[10] = sodium isoascorbate 142.9 mg/100 mL
[11] = sodium isoascorbate 171.4 mg/100 mL
[12] = sodium isoascorbate 200.0 mg/100 mL
[13] = sodium isoascorbate 228.6 mg/100 mL
[14] = sodium isoascorbate 257.1 mg/100 mL
[15] = sodium isoascorbate 285.7 mg/100 mL
[16] = sodium isoascorbate 314.3 mg/100 mL
[17] = sodium isoascorbate 342.9 mg/100 mL
[18] = sodium isoascorbate 371.4 mg/100 mL
[19] = sodium isoascorbate 400.0 mg/100 mL
[20] = sodium isoascorbate 428.6 mg/100 mL
[21] = sodium isoascorbate 457.1 mg/100 mL
[22] = sodium isoascorbate 485.7 mg/100 mL
[23] = sodium isoascorbate 514.3 mg/100 mL
[24] = sodium isoascorbate 542.9 mg/100 mL
[25] = sodium isoascorbate 571.4 mg/100 mL

For `O=C1O[C@H]([C@H](O)CO)C(O)=C1O` [isoascorbic acid ions], the “release promoting rate for iron compared with ascorbic acid ions” value ([1]; sodium isoascorbate additive) was “almost the same”.

For `O=C1O[C@H]([C@H](O)CO)C([O-])=C1O.[Na+]` [sodium isoascorbate], the iron release rate [1, 6] was 23.37%, the relative release rate [1, 6] was 46.37% and the releasable iron concentration [1, 6] was 7.01 ppm. It also gave an iron release rate [1, 7] of 28.20%, a relative release rate [1, 7] of 55.96% and a releasable iron concentration [1, 7] of 8.46 ppm. The iron release rate [1, 8] was 33.67%, the relative release rate [1, 8] was 66.81% and the releasable iron concentration [1, 8] was 10.10 ppm. For the same molecule, the iron release rate [1, 9] was 34.23%, the relative release rate [1, 9] was 67.94% and the releasable iron concentration [1, 9] was 10.27 ppm. For the same molecule, the iron release rate [1, 10] was 36.17%, the relative release rate [1, 10] was 71.77% and the releasable iron concentration [1, 10] was 10.85 ppm. It also gave an iron release rate [1, 11] of 38.73%, a relative release rate [1, 11] of 76.87% and a releasable iron concentration [1, 11] of 11.62 ppm. The iron release rate [1, 12] was 41.53%, the relative release rate [1, 12] was 82.42% and the releasable iron concentration [1, 12] was 12.46 ppm. For the same molecule, the iron release rate [1, 13] was 41.90%, the relative release rate [1, 13] was 83.15% and the releasable iron concentration [1, 13] was 12.57 ppm. For the same molecule, the iron release rate [1, 14] was 43.20%, the relative release rate [1, 14] was 85.73% and the releasable iron concentration [1, 14] was 12.96 ppm. For the same molecule, the iron release rate [1, 15] was 45.80%, the relative release rate [1, 15] was 90.89% and the releasable iron concentration [1, 15] was 13.74 ppm. For the same molecule, the iron release rate [1, 16] was 46.30%, the relative release rate [1, 16] was 91.88% and the releasable iron concentration [1, 16] was 13.89 ppm. It also gave an iron release rate [1, 17] of 47.77%, a relative release rate [1, 17] of 94.79% and a releasable iron concentration [1, 17] of 14.33 ppm. The iron release rate [1, 18] was 48.60%, the relative release rate [1, 18] was 96.45% and the releasable iron concentration [1, 18] was 14.58 ppm. It also gave an iron release rate [1, 19] of 48.73%, a relative release rate [1, 19] of 96.71% and a releasable iron concentration [1, 19] of 14.62 ppm. The iron release rate [1, 20] was 49.30%, the relative release rate [1, 20] was 97.84% and the releasable iron concentration [1, 20] was 14.79 ppm. The iron release rate [1, 21] was 49.23%, the relative release rate [1, 21] was 97.70% and the releasable iron concentration [1, 21] was 14.77 ppm. It also gave an iron release rate [1, 22] of 49.60%, a relative release rate [1, 22] of 98.43% and a releasable iron concentration [1, 22] of 14.88 ppm. The iron release rate [1, 23] was 49.90%, the relative release rate [1, 23] was 99.03% and the releasable iron concentration [1, 23] was 14.97 ppm. The iron release rate [1, 24] was 50.90%, the relative release rate [1, 24] was 101.01% and the releasable iron concentration [1, 24] was 15.27 ppm. It also gave an iron release rate [1, 25] of 50.37%, a relative release rate [1, 25] of 99.95% and a releasable iron concentration [1, 25] of 15.11 ppm.

For calcium ascorbate [CaVC], the iron release rate [2] was 48.75%, the releasable iron [2] was 1.95 ppm and the “relative release rate” value ([2]; relative to ferrous sulfate aqueous solution) was 96.75%.

With ferrous gluconate the “releasable iron concentration before adding the ascorbic acid iron” value [3] was 2.08 ppm, the “the most effective additive dosage for ascorbic acid iron” value [3] was 50 mg/100 ml and the “release promoting rate of iron” value ([3]; after/before adding the ascorbic acid iron) was 458%. For the same molecule, the “releasable iron concentration after adding the ascorbic acid iron” value ([3]; at the most effective additive dosage 50) was 9.53 ppm, the “concentration of releasable iron” value ([4]; additive dosage of iron 10 ppm) was 1.61 ppm and the “concentration of releasable iron” value ([4]; additive dosage of iron 20 ppm) was 2.05 ppm. For the same molecule, the “concentration of releasable iron” value ([4]; additive dosage of iron 30 ppm) was 2.08 ppm, the “concentration of releasable iron” value ([4]; additive dosage of iron 40 ppm) was 2.68 ppm and the “concentration of releasable iron” value ([4]; additive dosage of iron 50 ppm) was 3.15 ppm. For the same molecule, the “concentration of releasable iron” value ([4]; additive dosage of iron 60 ppm) was 4.06 ppm, the “concentration of releasable iron” value ([4]; additive dosage of iron 70 ppm) was 3.98 ppm and the “concentration of releasable iron” value ([4]; additive dosage of iron 75 ppm) was 3.87 ppm. The initially inhibiting concentration ([4]; point where releasable iron starts to rise with additive dosage) was 30 ppm.

For heme iron, the average absorption rate [5] is listed as 25%.
